What was measured:
Experiment in all cases: KINOMEscan binding
Conditions in all cases: read-out: Percent Control
SRPK3 = target: T1, SRPK3 (Homo sapiens, UniProt Q9UPE1)
T1 construct: purchased Eurofins DiscoverX KINOMEscan

RIOK1 = target: T2, RIOK1 (Homo sapiens, UniProt Q9BRS2)
T2 construct: purchased Eurofins DiscoverX KINOMEscan

DDR1 = target: T3, DDR1 (Homo sapiens, UniProt Q08345)
T3 construct: purchased Eurofins DiscoverX KINOMEscan

RIOK3 = target: T4, RIOK3 (Homo sapiens, UniProt O14730)
T4 construct: purchased Eurofins DiscoverX KINOMEscan

SNRK = target: T5, SNRK (Homo sapiens, UniProt Q9NRH2)
T5 construct: purchased Eurofins DiscoverX KINOMEscan
T5 sequence (Q9NRH2 whole entry): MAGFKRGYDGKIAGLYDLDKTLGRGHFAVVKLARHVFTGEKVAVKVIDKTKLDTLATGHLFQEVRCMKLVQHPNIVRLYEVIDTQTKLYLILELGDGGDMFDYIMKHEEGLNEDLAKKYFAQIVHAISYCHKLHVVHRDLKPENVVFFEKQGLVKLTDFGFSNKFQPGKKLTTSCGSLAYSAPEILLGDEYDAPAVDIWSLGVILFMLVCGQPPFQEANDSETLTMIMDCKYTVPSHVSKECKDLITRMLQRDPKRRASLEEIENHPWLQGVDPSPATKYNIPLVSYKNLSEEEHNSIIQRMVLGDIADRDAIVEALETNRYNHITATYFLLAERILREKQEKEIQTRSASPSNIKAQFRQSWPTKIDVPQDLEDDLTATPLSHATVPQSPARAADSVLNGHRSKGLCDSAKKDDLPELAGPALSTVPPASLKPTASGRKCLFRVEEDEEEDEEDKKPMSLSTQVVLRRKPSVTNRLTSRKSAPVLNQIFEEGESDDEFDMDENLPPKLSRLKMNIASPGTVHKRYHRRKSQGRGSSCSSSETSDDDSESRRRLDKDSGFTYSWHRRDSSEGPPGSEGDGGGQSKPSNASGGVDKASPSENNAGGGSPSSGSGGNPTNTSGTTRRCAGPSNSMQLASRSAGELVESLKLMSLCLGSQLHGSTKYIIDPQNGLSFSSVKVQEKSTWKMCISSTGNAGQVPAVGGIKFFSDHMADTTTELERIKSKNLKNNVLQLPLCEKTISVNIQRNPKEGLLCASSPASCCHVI

AAK1 = target: T6, AAK1 (Homo sapiens, UniProt Q2M2I8)
T6 construct: purchased Eurofins DiscoverX KINOMEscan

LATS1 = target: T7, LATS1 (Homo sapiens, UniProt O95835)
T7 construct: purchased Eurofins DiscoverX KINOMEscan

ALK = target: T8, ALK (Homo sapiens, UniProt Q9UM73)
T8 construct: purchased Eurofins DiscoverX KINOMEscan

FLT3 = target: T9, FLT3 (Homo sapiens, UniProt P36888)
T9 construct: purchased Eurofins DiscoverX KINOMEscan

TBK1 = target: T10, TBK1 (Homo sapiens, UniProt Q9UHD2)
T10 construct: purchased Eurofins DiscoverX KINOMEscan

YSK1 = target: T11, YSK1 (Homo sapiens, UniProt O00506)
T11 construct: purchased Eurofins DiscoverX KINOMEscan

MINK = target: T12, MINK (Homo sapiens, UniProt Q8N4C8)
T12 construct: purchased Eurofins DiscoverX KINOMEscan
T12 sequence (Q8N4C8 whole entry): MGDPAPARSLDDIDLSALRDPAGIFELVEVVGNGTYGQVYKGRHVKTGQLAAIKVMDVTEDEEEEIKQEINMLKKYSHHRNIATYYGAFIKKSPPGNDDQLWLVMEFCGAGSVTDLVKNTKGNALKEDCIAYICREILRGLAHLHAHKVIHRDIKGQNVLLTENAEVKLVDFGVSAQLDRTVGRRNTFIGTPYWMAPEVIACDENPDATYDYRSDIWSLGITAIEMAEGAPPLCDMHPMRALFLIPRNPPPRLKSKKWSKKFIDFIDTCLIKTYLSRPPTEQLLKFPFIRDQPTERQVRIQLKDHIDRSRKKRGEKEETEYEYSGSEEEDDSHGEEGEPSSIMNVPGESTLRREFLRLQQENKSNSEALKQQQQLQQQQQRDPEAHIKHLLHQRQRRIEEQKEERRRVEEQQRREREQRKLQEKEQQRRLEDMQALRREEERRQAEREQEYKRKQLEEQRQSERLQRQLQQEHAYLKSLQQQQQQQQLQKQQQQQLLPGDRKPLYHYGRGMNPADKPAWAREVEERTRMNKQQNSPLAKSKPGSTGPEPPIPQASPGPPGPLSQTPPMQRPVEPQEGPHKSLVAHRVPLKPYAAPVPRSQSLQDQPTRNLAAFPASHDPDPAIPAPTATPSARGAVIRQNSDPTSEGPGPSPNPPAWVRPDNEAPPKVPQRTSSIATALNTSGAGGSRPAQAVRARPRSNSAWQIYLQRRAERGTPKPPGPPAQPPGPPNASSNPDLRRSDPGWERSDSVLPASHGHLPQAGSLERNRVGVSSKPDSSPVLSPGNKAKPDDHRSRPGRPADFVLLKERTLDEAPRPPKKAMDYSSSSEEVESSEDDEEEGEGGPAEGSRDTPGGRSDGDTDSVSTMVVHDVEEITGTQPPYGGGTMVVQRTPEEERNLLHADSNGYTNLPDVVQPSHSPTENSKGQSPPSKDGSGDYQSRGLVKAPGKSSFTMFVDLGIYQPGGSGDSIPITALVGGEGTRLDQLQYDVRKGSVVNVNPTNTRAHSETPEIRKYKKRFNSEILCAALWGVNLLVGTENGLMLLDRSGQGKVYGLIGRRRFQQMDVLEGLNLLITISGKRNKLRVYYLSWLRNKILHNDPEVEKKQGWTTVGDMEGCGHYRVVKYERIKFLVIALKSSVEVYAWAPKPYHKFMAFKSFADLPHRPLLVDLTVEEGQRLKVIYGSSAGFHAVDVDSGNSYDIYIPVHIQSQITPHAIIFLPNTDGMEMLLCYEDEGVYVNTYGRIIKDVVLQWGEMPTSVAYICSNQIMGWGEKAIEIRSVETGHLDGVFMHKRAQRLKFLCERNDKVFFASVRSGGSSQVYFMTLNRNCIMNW

YES = target: T13, YES (Homo sapiens, UniProt P07947)
T13 construct: purchased Eurofins DiscoverX KINOMEscan

TSSK1B = target: T14, TSSK1B (Homo sapiens, UniProt Q9BXA7)
T14 construct: purchased Eurofins DiscoverX KINOMEscan
T14 sequence (Q9BXA7 whole entry): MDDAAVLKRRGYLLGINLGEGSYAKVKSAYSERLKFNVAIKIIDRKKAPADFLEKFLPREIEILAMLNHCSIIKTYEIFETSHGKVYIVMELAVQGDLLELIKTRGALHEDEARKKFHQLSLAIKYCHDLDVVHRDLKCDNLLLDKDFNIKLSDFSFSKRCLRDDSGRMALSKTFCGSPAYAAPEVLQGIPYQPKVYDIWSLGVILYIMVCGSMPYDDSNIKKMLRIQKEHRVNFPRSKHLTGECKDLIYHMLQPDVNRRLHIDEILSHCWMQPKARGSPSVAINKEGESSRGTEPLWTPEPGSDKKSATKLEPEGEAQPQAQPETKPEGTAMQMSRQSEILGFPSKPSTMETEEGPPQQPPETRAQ

CDC2L2 = target: T15, CDC2L2 (Homo sapiens, UniProt Q9UQ88)
T15 construct: purchased Eurofins DiscoverX KINOMEscan

PIK3CG = target: T16, PIK3CG (Homo sapiens, UniProt P48736)
T16 construct: purchased Eurofins DiscoverX KINOMEscan
T16 sequence (P48736 whole entry): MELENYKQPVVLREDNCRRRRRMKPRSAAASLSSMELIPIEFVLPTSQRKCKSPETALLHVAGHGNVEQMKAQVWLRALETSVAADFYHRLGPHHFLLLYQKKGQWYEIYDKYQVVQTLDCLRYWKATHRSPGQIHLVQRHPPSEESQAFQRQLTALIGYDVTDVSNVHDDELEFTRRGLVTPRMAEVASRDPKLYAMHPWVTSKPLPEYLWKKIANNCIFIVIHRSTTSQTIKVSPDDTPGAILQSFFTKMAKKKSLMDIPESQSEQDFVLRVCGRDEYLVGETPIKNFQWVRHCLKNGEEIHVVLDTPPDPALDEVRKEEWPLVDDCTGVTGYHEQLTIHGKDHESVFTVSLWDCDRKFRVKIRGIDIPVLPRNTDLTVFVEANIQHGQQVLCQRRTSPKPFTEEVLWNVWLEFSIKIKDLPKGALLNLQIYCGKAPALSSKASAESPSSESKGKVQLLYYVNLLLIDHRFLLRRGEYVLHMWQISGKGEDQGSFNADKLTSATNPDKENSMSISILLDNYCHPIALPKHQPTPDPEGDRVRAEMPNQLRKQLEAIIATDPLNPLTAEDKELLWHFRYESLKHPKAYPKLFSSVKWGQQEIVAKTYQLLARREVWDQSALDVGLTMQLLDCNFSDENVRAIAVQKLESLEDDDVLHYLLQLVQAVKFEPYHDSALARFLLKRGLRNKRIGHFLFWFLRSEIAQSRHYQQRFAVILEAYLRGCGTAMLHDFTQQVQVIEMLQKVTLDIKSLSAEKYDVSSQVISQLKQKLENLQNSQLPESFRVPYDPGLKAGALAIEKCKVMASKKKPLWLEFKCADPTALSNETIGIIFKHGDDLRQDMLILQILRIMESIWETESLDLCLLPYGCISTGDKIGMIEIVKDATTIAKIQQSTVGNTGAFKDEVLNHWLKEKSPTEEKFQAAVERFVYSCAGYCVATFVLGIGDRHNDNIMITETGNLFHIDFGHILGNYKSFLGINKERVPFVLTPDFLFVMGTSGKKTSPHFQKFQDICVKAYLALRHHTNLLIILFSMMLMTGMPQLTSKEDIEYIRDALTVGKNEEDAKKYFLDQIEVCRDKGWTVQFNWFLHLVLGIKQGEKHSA

WEE2 = target: T17, WEE2 (Homo sapiens, UniProt P0C1S8)
T17 construct: purchased Eurofins DiscoverX KINOMEscan

BRK = target: T18, BRK (Homo sapiens, UniProt Q13882)
T18 construct: purchased Eurofins DiscoverX KINOMEscan

MEK2 = target: T19, MEK2 (Homo sapiens, UniProt P36507)
T19 construct: purchased Eurofins DiscoverX KINOMEscan

MEK6 = target: T20, MEK6 (Homo sapiens, UniProt P52564)
T20 construct: purchased Eurofins DiscoverX KINOMEscan
T20 sequence (P52564 whole entry): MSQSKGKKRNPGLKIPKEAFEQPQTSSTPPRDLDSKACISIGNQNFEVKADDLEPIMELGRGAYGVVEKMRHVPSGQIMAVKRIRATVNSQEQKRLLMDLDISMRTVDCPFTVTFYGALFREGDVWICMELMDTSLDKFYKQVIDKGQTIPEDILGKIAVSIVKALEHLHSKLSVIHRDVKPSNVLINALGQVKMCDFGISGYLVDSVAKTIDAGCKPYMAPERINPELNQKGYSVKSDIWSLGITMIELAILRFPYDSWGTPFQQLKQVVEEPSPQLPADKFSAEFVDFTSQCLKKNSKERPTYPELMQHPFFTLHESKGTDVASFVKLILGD

ULK2 = target: T21, ULK2 (Homo sapiens, UniProt Q8IYT8)
T21 construct: purchased Eurofins DiscoverX KINOMEscan

CSK = target: T22, CSK (Homo sapiens, UniProt P41240)
T22 construct: purchased Eurofins DiscoverX KINOMEscan

[1] = target: T23, RSK4(Kin.Dom.2-C-terminal) (Homo sapiens, UniProt Q9UK32)
T23 construct: RSK4(Kin.Dom.2-C-terminal); purchased Eurofins DiscoverX KINOMEscan

GRK2 = target: T24, GRK2 (Homo sapiens, UniProt P25098)
T24 construct: purchased Eurofins DiscoverX KINOMEscan

[2] = target: T25, ABL1(H396P)-nonphosphorylated (Homo sapiens, UniProt P00519, H396P)
T25 construct: purchased Eurofins DiscoverX KINOMEscan

[3] = target: T26, ABL1(M351T)-phosphorylated (Homo sapiens, UniProt P00519, M351T)
T26 construct: purchased Eurofins DiscoverX KINOMEscan

CDKL3 = target: T27, CDKL3 (Homo sapiens, UniProt Q8IVW4)
T27 construct: purchased Eurofins DiscoverX KINOMEscan

ITK = target: T28, ITK (Homo sapiens, UniProt Q08881)
T28 construct: purchased Eurofins DiscoverX KINOMEscan

RIPK2 = target: T29, RIPK2 (Homo sapiens, UniProt O43353)
T29 construct: purchased Eurofins DiscoverX KINOMEscan

CDK2 = target: T30, CDK2 (Homo sapiens, UniProt P24941)
T30 construct: purchased Eurofins DiscoverX KINOMEscan

PLK2 = target: T31, PLK2 (Homo sapiens, UniProt Q9NYY3)
T31 construct: purchased Eurofins DiscoverX KINOMEscan

EPHB4 = target: T32, EPHB4 (Homo sapiens, UniProt P54760)
T32 construct: purchased Eurofins DiscoverX KINOMEscan

SGK = target: T33, SGK (Homo sapiens, UniProt O00141)
T33 construct: purchased Eurofins DiscoverX KINOMEscan

PKAC-beta = target: T34, PKAC-beta (Homo sapiens, UniProt P22694)
T34 construct: purchased Eurofins DiscoverX KINOMEscan

NEK1 = target: T35, NEK1 (Homo sapiens, UniProt Q96PY6)
T35 construct: purchased Eurofins DiscoverX KINOMEscan

CDKL2 = target: T36, CDKL2 (Homo sapiens, UniProt Q92772)
T36 construct: purchased Eurofins DiscoverX KINOMEscan

CHEK1 = target: T37, CHEK1 (Homo sapiens, UniProt O14757)
T37 construct: purchased Eurofins DiscoverX KINOMEscan

DAPK2 = target: T38, DAPK2 (Homo sapiens, UniProt Q9UIK4)
T38 construct: purchased Eurofins DiscoverX KINOMEscan

HIPK2 = target: T39, HIPK2 (Homo sapiens, UniProt Q9H2X6)
T39 construct: purchased Eurofins DiscoverX KINOMEscan

LZK = target: T40, LZK (Homo sapiens, UniProt O43283)
T40 construct: purchased Eurofins DiscoverX KINOMEscan
T40 sequence (O43283 whole entry): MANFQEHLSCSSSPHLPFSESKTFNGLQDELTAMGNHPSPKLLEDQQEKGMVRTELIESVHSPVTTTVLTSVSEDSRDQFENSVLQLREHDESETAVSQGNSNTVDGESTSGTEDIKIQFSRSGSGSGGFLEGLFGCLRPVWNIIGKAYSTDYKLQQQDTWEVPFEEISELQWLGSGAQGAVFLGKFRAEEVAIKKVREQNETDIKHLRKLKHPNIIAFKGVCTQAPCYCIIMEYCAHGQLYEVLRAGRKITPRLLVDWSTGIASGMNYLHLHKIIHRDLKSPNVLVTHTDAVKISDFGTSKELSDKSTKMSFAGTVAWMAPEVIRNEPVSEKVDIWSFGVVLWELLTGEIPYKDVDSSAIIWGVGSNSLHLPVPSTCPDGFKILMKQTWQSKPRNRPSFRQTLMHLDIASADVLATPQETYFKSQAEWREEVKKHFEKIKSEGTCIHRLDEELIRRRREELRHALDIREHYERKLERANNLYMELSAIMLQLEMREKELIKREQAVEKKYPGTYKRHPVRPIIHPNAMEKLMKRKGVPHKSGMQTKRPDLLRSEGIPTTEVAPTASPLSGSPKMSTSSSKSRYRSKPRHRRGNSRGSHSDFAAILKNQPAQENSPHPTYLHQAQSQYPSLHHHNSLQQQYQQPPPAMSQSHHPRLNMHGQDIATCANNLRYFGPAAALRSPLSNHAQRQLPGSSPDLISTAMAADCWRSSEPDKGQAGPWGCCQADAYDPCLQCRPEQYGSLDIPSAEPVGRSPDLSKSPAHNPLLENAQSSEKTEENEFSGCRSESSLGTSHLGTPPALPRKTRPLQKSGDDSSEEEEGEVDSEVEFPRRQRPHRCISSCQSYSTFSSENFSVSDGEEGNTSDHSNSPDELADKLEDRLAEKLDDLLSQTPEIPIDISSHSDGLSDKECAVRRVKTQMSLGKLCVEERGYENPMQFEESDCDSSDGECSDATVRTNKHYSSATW

NIM1 = target: T41, NIM1 (Homo sapiens, UniProt Q8IY84)
T41 construct: purchased Eurofins DiscoverX KINOMEscan

STK39 = target: T42, STK39 (Homo sapiens, UniProt Q9UEW8)
T42 construct: purchased Eurofins DiscoverX KINOMEscan

ULK1 = target: T43, ULK1 (Homo sapiens, UniProt O75385)
T43 construct: purchased Eurofins DiscoverX KINOMEscan

ROCK2 = ROCK2 (Homo sapiens, UniProt O75116); set-up: purchased Eurofins DiscoverX (KINOMEscan service)

## CC(C)NC(=O)COc1cccc(-c2nc(Nc3ccc4[nH]ncc4c3)c3ccccc3n2)c1 [KD025, 2-(3-(4-((1H-indazol-5-yl)amino)quinazolin-2-yl)phenoxy)-N-isopropylacetamide]
SRPK3
  remaining binding at 10 µM: 5.7%
RIOK1
  remaining binding at 10 µM: 6.2%
DDR1
  remaining binding at 10 µM: 6.4%
RIOK3
  remaining binding at 10 µM: 6.7%
SNRK
  remaining binding at 10 µM: 14%
AAK1
  remaining binding at 10 µM: 29%
LATS1
  remaining binding at 10 µM: 48%
ALK
  remaining binding at 10 µM: 54%
FLT3
  remaining binding at 10 µM: 60%
TBK1
  remaining binding at 10 µM: 66%
YSK1
  remaining binding at 10 µM: 70%
MINK
  remaining binding at 10 µM: 71%
YES
  remaining binding at 10 µM: 71%
TSSK1B
  remaining binding at 10 µM: 76%
CDC2L2
  remaining binding at 10 µM: 80%
PIK3CG
  remaining binding at 10 µM: 82%
WEE2
  remaining binding at 10 µM: 82%
BRK
  remaining binding at 10 µM: 86%
MEK2
  remaining binding at 10 µM: 86%
MEK6
  remaining binding at 10 µM: 87%
ULK2
  remaining binding at 10 µM: 87%
CSK
  remaining binding at 10 µM: 88%
[1]
  remaining binding at 10 µM: 88%
GRK2
  remaining binding at 10 µM: 89%
[2]
  remaining binding at 10 µM: 90%
[3]
  remaining binding at 10 µM: 90%
CDKL3
  remaining binding at 10 µM: 91%
ITK
  remaining binding at 10 µM: 92%
RIPK2
  remaining binding at 10 µM: 92%
CDK2
  remaining binding at 10 µM: 93%
PLK2
  remaining binding at 10 µM: 94%
EPHB4
  remaining binding at 10 µM: 95%
SGK
  remaining binding at 10 µM: 95%
PKAC-beta
  remaining binding at 10 µM: 98%
NEK1
  remaining binding at 10 µM: 99%
CDKL2
  remaining binding at 10 µM: 100%
CHEK1
  remaining binding at 10 µM: 100%
DAPK2
  remaining binding at 10 µM: 100%
HIPK2
  remaining binding at 10 µM: 100%
LZK
  remaining binding at 10 µM: 100%
NIM1
  remaining binding at 10 µM: 100%
STK39
  remaining binding at 10 µM: 100%
ULK1
  remaining binding at 10 µM: 100%
ROCK2
  remaining binding at 10 µM: 0.05%
